The source made the active and inactive calls.
Columns and labels:
[1] = inhibitors of Trypanosoma cruzi host-cell infection, confirmation, beta-gal luminescence, NIH3T3 host cells (AID 2630); format: functional, cell-based; conditions: Mus musculus
[2] = THP-1 cell cytotoxicity, dose response, cytotoxicity control for non-replicating M. tuberculosis project (AID 489025); format: functional
[3] = growth suppression of beta-catenin-knockout colon cells, dose response, cell-based, HCT116, human colon tumor (AID 1045); format: functional;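 also: HCT116 colon tumor cells with beta catenin knocked out; cells exposed to compound for 60 hours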
[4] = growth suppression of PTEN-null colon cells, dose response, cell-based, HCT116 PTEN knockout (AID 1047); format: functional;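 also: HCT116 colon tumor cells with PTEN knocked out; cells exposed to compound for 60 hours before readout; potency for loss of cell viability measured by luminescence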
HEK293 [5] = assay: cells; conditions: Homo sapiens
[6] = HEp-2 cell cytotoxicity, dose response, cytotoxicity control for RSV inhibitor project, HTS (AID 2410); format: functional; conditions: human respiratory syncytial virus
[7] = cytotoxicity in HEK-293T cells, dose response, cytotoxicity control for BCR NF-kB inhibitor project, luminescence, B-cell screen hits (AID 489021); format: functional, cell-based;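 also: HEK-293T cells carrying an NF-kB luciferase reporter; cells exposed to compound for about 14 hours before viability readout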
HEK293 [8] = assay: cells; conditions: Homo sapiens; remark: listed apart in the source
[9] = Vero E6 cell cytotoxicity, dose response, cytotoxicity control for non-replicating M. tuberculosis project, secondary assay (AID 492998); format: functional, VeroE6; conditions: Vero C1008
[10] = ZM109 Env clade C HIV-1 fusion inhibitors, dose response, HeLa effector, CEM target cells, luciferase, cherry-pick (AID 652058); format: functional, cell-based
[11] = biological target: Dual specificity tyrosine-phosphorylation-regulated kinase 1A (Rattus norvegicus, UniProt Q63470); format: biochemical, Homo sapiens
[12] = off-target signal loss in HeLa-CEM21 co-culture – HeLa F-luc CTL cells, cherry-picked, counter-screen for HIV-1 Env fusion inhibitor project, dose response (AID 652040); format: functional, cell-based;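 also: potency for signal decrease marking cytotoxic or nonspecific inhibition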
[13] = inhibitors of HIV Env-driven cell fusion, dose response, cherry-pick (AID 652057); format: functional, cell-based
[14] = inhibitors of clade B AD8 Env fusion, dose response, cell-based, cherry-pick (AID 652062); format: functional;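 also: luciferase signal from cell-cell fusion driven by HIV-1 clade B AD8 Env; potency is for inhibitors of fusion seen as a drop in luminescence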
[15] = biological target: T1, Microphthalmia-associated transcription factor (Homo sapiens, UniProt O75030); assay: TRPM1 promoter luciferase signal decrease, dose response, MITF inhibitor project, cell-based, SK-MEL-5, cherry-picked, set 3 (AID 493073); format: functional
T1 sequence (O75030 whole entry): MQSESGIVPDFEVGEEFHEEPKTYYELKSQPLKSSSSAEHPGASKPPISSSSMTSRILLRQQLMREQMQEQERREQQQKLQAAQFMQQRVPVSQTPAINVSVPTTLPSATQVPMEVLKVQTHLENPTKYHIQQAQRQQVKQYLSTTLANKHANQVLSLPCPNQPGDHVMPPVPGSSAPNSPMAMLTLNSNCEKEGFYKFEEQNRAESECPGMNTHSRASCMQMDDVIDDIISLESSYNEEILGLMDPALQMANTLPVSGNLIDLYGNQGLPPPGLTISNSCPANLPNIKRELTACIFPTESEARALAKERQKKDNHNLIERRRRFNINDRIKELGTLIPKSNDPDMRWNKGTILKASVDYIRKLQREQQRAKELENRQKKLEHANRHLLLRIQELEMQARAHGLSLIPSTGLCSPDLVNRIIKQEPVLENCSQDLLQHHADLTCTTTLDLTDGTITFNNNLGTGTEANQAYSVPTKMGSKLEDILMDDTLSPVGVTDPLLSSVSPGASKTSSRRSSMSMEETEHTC

[16] = MC4R antagonists, dose response, counter-screen for LGR2 antagonist project, cell-based, plate reader, cherry pick (AID 743444); format: functional;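 also: transfected HEK 293 cells stimulated with alpha-MSH peptide; potency of inhibitors of the alpha-MSH evoked signal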
[17] = cytotoxicity in HEK-293T NF-kB-Luc cells, dose response, cytotoxicity control for B/T-cell NF-kB inhibitor project, cell-based, uHTS hits (AID 489019); format: functional;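 also: IC50 reflects cytotoxicity as loss of cell viability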
Jurkat = assay: antigen receptor-induced NF-kB inhibitors, dose response, Jurkat, luciferase reporter, luminescence, B- and T-cell (AID 489004); format: functional, cell-based; conditions: Homo sapiens;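 also: NF-kB luciferase reporter Jurkat cells stimulated with PMA plus ionomycin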
Cytochrome P450 1A2 = biological target: T2, Cytochrome P450 1A2 (Homo sapiens, UniProt P05177);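 also: PubChem cytochrome P450 panel assay, CYP1A2 panel member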
T2 sequence (P05177 whole entry): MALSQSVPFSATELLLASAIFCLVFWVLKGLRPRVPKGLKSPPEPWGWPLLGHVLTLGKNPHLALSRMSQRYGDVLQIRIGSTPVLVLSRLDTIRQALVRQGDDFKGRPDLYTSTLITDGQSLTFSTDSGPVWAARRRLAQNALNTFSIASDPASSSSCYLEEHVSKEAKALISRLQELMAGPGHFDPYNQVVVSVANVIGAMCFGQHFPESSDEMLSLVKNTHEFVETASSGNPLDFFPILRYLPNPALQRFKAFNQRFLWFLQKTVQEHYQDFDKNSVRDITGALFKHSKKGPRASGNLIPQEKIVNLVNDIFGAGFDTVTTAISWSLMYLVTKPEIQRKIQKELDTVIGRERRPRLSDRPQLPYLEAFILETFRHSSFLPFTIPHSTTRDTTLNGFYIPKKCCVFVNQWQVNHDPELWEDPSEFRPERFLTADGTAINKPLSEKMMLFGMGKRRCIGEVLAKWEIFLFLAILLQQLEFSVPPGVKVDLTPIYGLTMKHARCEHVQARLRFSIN

[18] = biological target: Glucose-6-phosphate 1-dehydrogenase (Homo sapiens, UniProt P11413); assay: human G6PD enzyme inhibitors, dose response, selectivity assay for P. falciparum G6PD inhibitor project, biochemical, fluorescence (AID 504792); format: functional
Sequence of Glucose-6-phosphate 1-dehydrogenase (P11413 whole entry): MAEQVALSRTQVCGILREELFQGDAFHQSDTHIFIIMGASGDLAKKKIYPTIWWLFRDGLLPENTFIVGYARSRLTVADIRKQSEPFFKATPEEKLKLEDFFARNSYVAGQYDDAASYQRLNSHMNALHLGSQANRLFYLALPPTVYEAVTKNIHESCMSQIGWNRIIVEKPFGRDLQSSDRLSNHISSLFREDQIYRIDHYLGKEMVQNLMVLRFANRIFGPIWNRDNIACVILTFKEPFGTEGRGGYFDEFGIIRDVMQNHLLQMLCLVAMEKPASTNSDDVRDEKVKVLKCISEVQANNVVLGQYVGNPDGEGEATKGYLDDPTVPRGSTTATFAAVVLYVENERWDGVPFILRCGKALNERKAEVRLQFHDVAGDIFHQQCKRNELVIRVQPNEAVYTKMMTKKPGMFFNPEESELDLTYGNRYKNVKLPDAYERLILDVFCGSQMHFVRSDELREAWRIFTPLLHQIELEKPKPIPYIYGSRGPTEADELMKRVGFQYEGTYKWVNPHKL

Cytochrome P450 3A4 = Cytochrome P450 3A4 (Homo sapiens, UniProt P08684);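 also: CYP3A4 tested as one member of a cytochrome P450 panel screen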
Sequence of Cytochrome P450 3A4 (P08684 whole entry): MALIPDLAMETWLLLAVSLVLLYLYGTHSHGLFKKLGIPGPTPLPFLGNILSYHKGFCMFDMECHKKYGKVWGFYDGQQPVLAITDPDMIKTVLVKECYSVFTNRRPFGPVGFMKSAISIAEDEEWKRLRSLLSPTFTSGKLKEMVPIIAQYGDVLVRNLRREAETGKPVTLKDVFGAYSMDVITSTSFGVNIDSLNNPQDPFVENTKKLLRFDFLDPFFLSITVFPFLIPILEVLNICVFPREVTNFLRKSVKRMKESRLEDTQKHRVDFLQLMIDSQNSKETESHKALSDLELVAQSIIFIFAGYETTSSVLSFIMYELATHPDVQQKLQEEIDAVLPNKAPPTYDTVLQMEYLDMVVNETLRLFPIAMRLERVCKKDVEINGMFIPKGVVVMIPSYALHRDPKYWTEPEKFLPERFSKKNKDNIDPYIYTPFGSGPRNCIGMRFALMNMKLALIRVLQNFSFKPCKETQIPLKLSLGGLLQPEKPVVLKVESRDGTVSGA

Cytochrome P450 2C19 = Cytochrome P450 2C19 (Homo sapiens, UniProt P33261); assay: Cytochrome panel assay with activity outcomes. Panel member name: p450-cyp2c19 Compounds with AC50 equal or less than 10 uM are considered active; format: functional; conditions: read-out: AC50
Sequence of Cytochrome P450 2C19 (P33261 whole entry): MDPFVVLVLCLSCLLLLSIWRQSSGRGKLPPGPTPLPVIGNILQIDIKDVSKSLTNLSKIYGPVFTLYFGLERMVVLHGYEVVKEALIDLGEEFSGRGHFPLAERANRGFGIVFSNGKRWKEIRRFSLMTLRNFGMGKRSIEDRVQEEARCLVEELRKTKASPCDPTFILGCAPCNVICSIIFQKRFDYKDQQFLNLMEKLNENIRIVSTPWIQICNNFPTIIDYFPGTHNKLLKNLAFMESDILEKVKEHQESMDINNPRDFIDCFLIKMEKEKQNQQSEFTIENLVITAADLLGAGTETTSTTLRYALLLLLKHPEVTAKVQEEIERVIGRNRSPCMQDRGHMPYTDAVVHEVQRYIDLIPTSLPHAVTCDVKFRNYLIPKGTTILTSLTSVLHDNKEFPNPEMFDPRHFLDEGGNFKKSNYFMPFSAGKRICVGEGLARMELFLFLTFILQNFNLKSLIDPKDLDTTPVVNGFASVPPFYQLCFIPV

Cytochrome P450 2C9 = Cytochrome P450 2C9 (Homo sapiens, UniProt P11712)
Sequence of Cytochrome P450 2C9 (P11712 whole entry): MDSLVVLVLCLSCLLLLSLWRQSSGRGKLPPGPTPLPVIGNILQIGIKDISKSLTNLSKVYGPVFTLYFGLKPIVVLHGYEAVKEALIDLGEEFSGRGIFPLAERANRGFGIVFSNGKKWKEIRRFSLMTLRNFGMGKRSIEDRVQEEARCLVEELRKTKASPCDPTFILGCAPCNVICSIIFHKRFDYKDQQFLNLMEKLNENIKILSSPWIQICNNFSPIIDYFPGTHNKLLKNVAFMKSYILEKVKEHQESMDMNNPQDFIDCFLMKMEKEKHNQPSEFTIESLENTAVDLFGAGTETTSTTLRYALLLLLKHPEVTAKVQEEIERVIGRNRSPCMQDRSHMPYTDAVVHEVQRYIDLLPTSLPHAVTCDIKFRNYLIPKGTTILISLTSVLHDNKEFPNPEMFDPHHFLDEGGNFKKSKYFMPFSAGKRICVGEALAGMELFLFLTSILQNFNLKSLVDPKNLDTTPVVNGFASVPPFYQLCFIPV

**Q.** For `Cc1cc(C)n(CC(=O)N2CCCC(C(=O)c3cccc(OC(C)C)c3)C2)n1` (stereo not given), which EC50 [1] is on record?
**A.** 14.1 µM (active)

**Q.** Which CC50 [2] does the source give for `CC1=CC(C)(C)Nc2ccc(OC(=O)CN3C(=O)c4ccccc4C3=O)cc21` here?
**A.** 6.68 µM (active)

**Q.** And the EC50 [3]?
**A.** 5.85 µM (active)

**Q.** And the EC50 [4]?
**A.** 9.51 µM (active)

**Q.** What about the EC50 (HEK293 [5]) of the same molecule?
**A.** > 59.6 µM (inactive)

**Q.** What about the CC50 [6] of the same molecule?
**A.** 6.94 µM (active)

**Q.** What about the IC50 [7] of the same molecule?
**A.** 58.6 µM (inactive)

**Q.** And the EC50 (HEK293 [8])?
**A.** > 59.6 µM (inactive)

**Q.** What about the CC50 [9] of the same molecule?
**A.** 13.6 µM (active)

**Q.** Which AC50 [10] does the source give for `Cc1ccc2nc(NC(=O)CCCC(=O)O)sc2c1` here?
**A.** 620 nM (active)

**Q.** And the AC50 [11]?
**A.** 4.63 µM (active)

**Q.** What about the AC50 [12] of the same molecule?
**A.** 2.82 µM (active)

**Q.** And the AC50 [13]?
**A.** 1.42 µM (active)

**Q.** And the AC50 [14]?
**A.** 1.02 µM (active)

**Q.** And the AC50 [15]?
**A.** 12.1 µM (active)

**Q.** What about the AC50 [16] of the same molecule?
**A.** 44.1 µM (active)

**Q.** What about the IC50 [17] of the same molecule?
**A.** > 80 µM (inactive)

**Q.** What about the IC50 (Jurkat) of the same molecule?
**A.** 800 nM (active)

**Q.** For `C[N+]1([C@H](CO)Cc2c[nH]c3ccccc23)Cc2ccccc2C1.O=S(=O)([O-])c1ccccc1`, which AC50 (Cytochrome P450 1A2) is on record?
**A.** inactive

**Q.** Which IC50 [18] does the source give for `Cc1[nH]c2ccccc2c1/C=N/NC(=O)c1cccc(S(=O)(=O)Nc2ccccc2Cl)c1` here?
**A.** > 80 µM (inactive)

**Q.** What does the source list for `CCCCC1(C)OC(=O)C(=Cc2ccc(N(C)C)cc2)C(=O)O1` (stereo not given)?
**A.** AC50 (Cytochrome P450 3A4): 1 µM (inconclusive); AC50 (Cytochrome P450 2C19): 28.2 µM (inconclusive); AC50 (Cytochrome P450 2C9): inconclusive; AC50 (Cytochrome P450 1A2): 14.1 µM (inconclusive)

**Q.** With `COc1ccc(NC(C)C(=O)N/N=C/c2cc(Br)ccc2OC)cc1` (stereo not given) as the molecule, how does the IC50 [18] read?
**A.** > 80 µM (inactive)

Source: ChEMBL document CHEMBL1201862, “PubChem BioAssay data set” (2004)
